Source: paper PMC13224100, “Esterase-Responsive Mitochondria-Targeted Hydropersulfide Donors Mitigate Doxorubicin Cardiotoxicity While Preserving Anticancer Activity” (Angewandte Chemie (International ed. in English), 2025)

Tests used:
Type in all cases: cell-based
[1] = system: HepG2 cells; experiment: Intracellular ATP levels (CellTiter-Glo) under DOX; details: donor 25 μM, 4 h pretreatment, DOX 5 μM 24 h
Description: (§1) Figure 6. a) Basal sulfane sulfur (SS) levels in H9c2 cardiomyocyte, MDA-MB-468, MCF-7, and HepG2 cell lines as detected by SSP4 fluorescence. b) Representative images and c) basal levels of mitochondrial membrane potential (MMP) in H9c2 and cancer cells (MDA-MB-468, MCF-7, and HepG2). d) Impact of APT-1 (25 μM) or APT-1-TPP (25 μM) on MMP in DOX (5 μM)-treated (d) H9c2 and e) HepG2 cells. Impact of APT-1 (25 μM) and APT-1-TPP (25 μM) on ATP levels in DOX (5 μM)-treated f) H9c2 and g) HepG2 cells. Results are expressed as mean ± SEM, n = 3–6; *P < 0.05, **P < 0.01, ***P < 0.001, ****P < 0.0001. Significances in (a) and (c) are presented with respect to H9c2 cells.
(§2) We then examined how RSSH donors influence MMP during DOX exposure. As expected, DOX alone induced mitochondrial depolarization in H9c2 cells, reducing MMP to ca. 50% of control (Figure 6d). […] To complement these observations, we quantified intracellular ATP levels as a functional readout of mitochondrial activity. […]
(§3) Briefly, H9c2 cells and HepG2 cells were seeded in 96-well white-bottom plate (Alkali Scientific, SKU:TPW9096, TC-treated) at 5000 cells/well. After treatment (Ctrl, 5 μM DOX alone, 4 h pretreatment of 25 μM APT-1 + 24 h cotreatment with 5 μM DOX, and 4 h pretreatment of 25 μM APT-1-TPP + 24 h cotreatment with 5 μM DOX, in clear DMEM medium with 10% FBS), cells were equilibrated at rt for 30 min before CellTiter-Glo® reagent was added to each well. Plates were then placed on an orbital shaker for 2 min and incubated at rt for another 20 min.
(§4) Chemiluminescence was measured using Tecan plate reader (SPARK Part No. 30124664 Version 1.7, serial No. 1909010319). Cellular AT P concentration was calculated based on the AT P calibration curve and normalized to cell count. […] Each treatment condition was performed in 6 technical replicates per biological replicate, and the experiment was independently repeated three times (n = 3 biological replicates).
(§5) Data are presented as mean ± SEM. […]

[2] = system: H9c2 cells; experiment: Intracellular ATP levels (CellTiter-Glo) under DOX; details: donor 25 μM, 4 h pretreatment, DOX 5 μM 24 h
Description: as §1, §2, §3, §4, §5

[3] = system: H9c2 cells; experiment: Intracellular RSSH analysis by LC-MS/MS after subcellular fractionation; details: 200 μM, 2 h; for HPE-AM adducts of Cys-SSH and GSSH, cytoplasmic fraction: vs vehicle; for Cys-SH and GSH in mitochondria: did not reach statistical significance
Description: After confirming efficient esterase-triggered RSSH generation from these newly developed precursors in PBS (pH 7.4), we next evaluated their ability to release RSSH in cardiac cells. […] H9c2 cells were treated with each donor (200 μM, 2 h), followed by subcellular fractionation using differential centrifugation to isolate cytoplasmic and mitochondrial fractions. Each fraction was subsequently incubated with the RSSH-trapping agent HPE-IAM (5 mM in methanol) to alkylate and stabilize transient RSSH species. The resulting adducts were analyzed by LC–MS/MS.[40, 41] In the cytoplasmic fraction, both donors increased HPE-AM adducts of Cys-SSH and GSSH, with APT-1 showing higher levels than APT-1-TPP (Figure 3a,b).
Figure 3. Measurement of cysteine hydropersulfide (Cys-SSH) and glutathione hydropersulfide (GSSH) in cytoplasm (a and b) and mitochondria (c and d) of H9c2 cells. Cells were treated with APT-1 (200 μM), APT-1-TPP (200 μM), or vehicle (0.01% DMSO in serum-free medium) for 2 h, followed by subcellular fractionation. Each fraction was incubated with HPE-IAM (5 mM, 30 min) to trap RSSH species prior to LC–MS/MS analysis. Data are mean ± SEM (n = 3); *p ≤ 0.05, **p ≤ 0.01. […]
Intracellular RSSH Analysis by LC-MS
H9c2 cells were cultured in 150-mm dishes to 80–90% confluency and treated for 2 h with either control medium (FBS-free DMEM, 0.01% DMSO) or 200 μM RSSH donors (FBS-free DMEM with APT-1 or APT-1-TPP). Cells were washed two times with warm PBS, collected by scraping, and centrifuged at 1,000 × g for 10 min at 4 °C (Sorvall ST 8R, ThermoFisher). Pellets were resuspended in 0.6 mL sucrose buffer; ¼ was reserved for BCA assay and ¾ used for fractionation. Cells were lysed on ice by 20 passages through a 26-G needle and centrifuged at 1,500 × g for 10 min at 4 °C (Z 216 MK, HERMLE). Pellets (nuclear/debris fraction) were collected, and supernatants were centrifuged at 12,000 × g for 10 min at 4 °C. Pellets (mitochondrial fraction) and supernatants (cytoplasmic fraction) were collected. Each of these fractions were resuspended in methanol containing 5 mM HPE-IAM, sonicated (3 × 10 s on/10 s off, Branson Sonifier SFX150), incubated at 37 °C for 30 min, and centrifuged at 16,000 × g for 10 min at 4 °C.
Supernatants were analyzed by MRM LC-MS/MS (Ultivo Triple Quadrupole, Agilent) using a Poroshell 120 EC-C18 column (4.6 × 100 mm, 2.7 μm; Agilent) at 30 °C, 0.6 mL/min, with the following gradient (solvent A: water + 0.1% TFA; solvent B: acetonitrile + 0.1% TFA): 0–1.5 min, […]
min, 97% A. Injection volume: 10 μL. Experiments were performed in triplicate (n = 3 biological replicates). Data are shown as mean ± SEM. […]
Ta b l e S1. MRM parameters for LC-MS/MS
Analyte Polarity Precursor ion Product ion Collision energy
Figure S21. Measurement of H2S2, and H2S in cytoplasm (A, B) and mitochondria (C,D) of H9c2 cells treated with APT-1 (200 µM) APT-1-TPP (200 µM), or vehicle (0.01% DMSO in serum-free medium) for 2 h. Data are mean ± SEM (n = 3); *p ≤ 0.05, **p ≤ 0.01.
Figure S22. Measurement of Cys-SH and GSH in cytoplasm (A, B) and mitochondria (C, D) of H9c2 cells […]
Cytotoxicity Assessment of Hydropersulfide Precursors in H9c2 and HepG2 cells Cell viability was measured using the Cell Counting Kit-8 (CCK-8, Dojindo).[7] H9c2 cardiomyoblast and HepG2 cells were seeded at a density of 8 × 10³ cells/well in a 96-well plate (flat-bottom, tissue culture-treated). […]

Row | Compound | effect on DOX-induced ATP depletion [1] | effect on DOX-reduced ATP levels [2] | Cys-SH and GSH in the cytoplasm [3] | H2S and H2S2 levels in mitochondria [3] | Cys-SSH and GSSH adducts, mitochondrial fraction ([3]; compared with APT-1) | HPE-AM adducts of Cys-SSH and GSSH, cytoplasmic fraction [3] | Cys-SH and GSH in mitochondria [3] | H2S and H2S2 levels in the cytoplasm [3]
1 | CC(=O)NC(C(=O)N(C)CCC[P+](c1ccccc1)(c1ccccc1)c1ccccc1)C(C)(C)SSC(=O)N(C)CCOC(C)=O (stereo not shown) [APT-1-TPP] | neither donor rescued DOX-induced ATP depletion | restored | significant increases | elevated | substantially higher levels | increased | modest increases | 
2 | COC(=O)C(NC(C)=O)C(C)(C)SSC(=O)N(C)CCOC(C)=O (stereo not shown) [APT-1] | neither donor rescued DOX-induced ATP depletion | restored | significant increases |  |  | increased | modest increases | elevated
